Experimental data: ChEMBL document CHEMBL1201862, “PubChem BioAssay data set” (2004)
Active and inactive are the calls of the source.

How the values were obtained:
[1] = inhibitors of Vif binding to APOBEC3G peptide, primary screen, biochemical, TR-FRET, GST-Vif 1-94, biotin-A3G peptide, dose response retest (AID 1117319); assay type: functional;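 further: TR-FRET signal of purified GST-Vif binding a biotinylated A3G peptide; inhibitors lower the FRET signal by blocking Vif and A3G binding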
Bcl-2-like protein 10 = molecular target: T1, Bcl-2-like protein 10 (Homo sapiens, UniProt Q9HD36); assay: displacers of TR3 peptide from Bcl-B, primary screen, selectivity assay for Bfl-1 inhibitor project, biochemical, fluorescence polarization, FITC-TR3 peptide (AID 748);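 further: fluorescence polarization from a fluorescein-labelled TR3 peptide binding purified Bcl-B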
T1 sequence (Q9HD36 whole entry): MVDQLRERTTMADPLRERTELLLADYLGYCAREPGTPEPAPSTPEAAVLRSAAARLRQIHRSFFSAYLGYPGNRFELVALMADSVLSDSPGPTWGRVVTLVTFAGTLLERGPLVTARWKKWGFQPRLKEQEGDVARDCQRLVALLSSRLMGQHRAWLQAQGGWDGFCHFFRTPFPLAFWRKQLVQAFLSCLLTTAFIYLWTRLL

Estrogen receptor beta [2] = molecular target: T2, Estrogen receptor beta (Homo sapiens, UniProt Q92731);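 further: recombinant ER-beta bound to coactivator SRC1 peptide in presence of estradiol agonist; inhibitors block coactivator peptide binding and lower the FRET signal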
Estrogen receptor beta [3] = molecular target: T2, Estrogen receptor beta; assay: ERβ–SRC-3 coactivator interaction inhibitors, confirmation, orthogonal assay, biochemical, ELISA, streptavidin-HRP readout (AID 1060)
[4] = molecular target: Peroxisome proliferator-activated receptor gamma/Nuclear receptor coactivator 1 (Homo sapiens, UniProt P37231); assay type: functional;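 further: agonist potency as compounds enhance coactivator SRC-1 recruitment to PPARgamma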
[5] = molecular target: Peroxisome proliferator-activated receptor gamma/Nuclear receptor coactivator 3 (Homo sapiens, UniProt P37231); assay type: functional;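 further: agonist potency for raising coactivator recruitment to the receptor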
[6] = molecular target: Peroxisome proliferator-activated receptor gamma/Nuclear receptor coactivator 2 (Homo sapiens, UniProt P37231); assay type: functional;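 further: agonist potency for raising coactivator recruitment to the receptor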
[7] = molecular target: Heat shock protein HSP 90-alpha (Homo sapiens, UniProt P07900); assay type: functional, organism-based
[8] = molecular target: T3, DNA repair protein RAD52 homolog (Homo sapiens, UniProt P43351); assay type: functional, biochemical
T3 sequence (P43351 whole entry): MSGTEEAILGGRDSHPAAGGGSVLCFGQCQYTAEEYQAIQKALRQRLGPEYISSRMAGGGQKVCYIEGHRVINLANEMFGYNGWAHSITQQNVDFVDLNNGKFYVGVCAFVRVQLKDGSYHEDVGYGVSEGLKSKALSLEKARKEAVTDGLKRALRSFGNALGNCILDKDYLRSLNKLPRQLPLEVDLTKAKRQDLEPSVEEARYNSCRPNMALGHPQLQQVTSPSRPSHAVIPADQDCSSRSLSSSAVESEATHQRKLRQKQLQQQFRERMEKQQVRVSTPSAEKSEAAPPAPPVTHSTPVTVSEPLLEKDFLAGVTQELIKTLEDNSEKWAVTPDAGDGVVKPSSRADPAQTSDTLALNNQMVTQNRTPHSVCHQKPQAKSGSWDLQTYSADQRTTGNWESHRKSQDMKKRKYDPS

[9] = molecular target: T4, Methionyl-tRNA synthetase, putative (Trypanosoma brucei brucei, UniProt Q38C91); assay type: functional, Trypanosoma brucei brucei strain 927/4 GUTat10.1
T4 sequence (Q38C91 whole entry): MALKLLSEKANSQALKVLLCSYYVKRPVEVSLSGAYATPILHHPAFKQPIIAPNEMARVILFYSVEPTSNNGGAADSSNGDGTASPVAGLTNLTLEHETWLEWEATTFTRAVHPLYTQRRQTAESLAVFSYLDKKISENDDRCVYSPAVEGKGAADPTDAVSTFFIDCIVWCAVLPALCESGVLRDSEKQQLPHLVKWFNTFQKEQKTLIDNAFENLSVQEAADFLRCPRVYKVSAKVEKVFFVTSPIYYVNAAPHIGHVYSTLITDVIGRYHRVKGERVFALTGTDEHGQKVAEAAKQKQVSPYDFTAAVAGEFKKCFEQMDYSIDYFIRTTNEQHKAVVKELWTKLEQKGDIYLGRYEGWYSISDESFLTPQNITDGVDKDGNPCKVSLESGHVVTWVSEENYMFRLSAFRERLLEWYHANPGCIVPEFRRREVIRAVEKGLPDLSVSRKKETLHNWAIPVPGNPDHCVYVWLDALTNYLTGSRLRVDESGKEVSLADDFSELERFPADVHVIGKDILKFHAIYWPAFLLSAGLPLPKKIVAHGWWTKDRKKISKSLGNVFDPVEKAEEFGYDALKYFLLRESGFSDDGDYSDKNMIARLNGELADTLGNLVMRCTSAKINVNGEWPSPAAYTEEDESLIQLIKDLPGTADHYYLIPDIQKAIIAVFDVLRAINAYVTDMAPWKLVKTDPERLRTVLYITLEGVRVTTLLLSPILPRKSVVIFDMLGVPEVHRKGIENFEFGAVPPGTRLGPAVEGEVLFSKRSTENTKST

[10] = molecular target: T4, Methionyl-tRNA synthetase, putative; assay type: functional, Trypanosoma brucei brucei strain 927/4 GUTat10.1; remark: listed apart in the source
[11] = Counterscreen for inhibitors of Trypanosoma brucei methionyl tRNA synthetase (MetRS): Luminescence-based cell-based high throughput dose response assay to identify compounds that are cytotoxic to Jurkat human T lymphocyte cells.; assay type: functional
[12] = A549 cell cytotoxicity, dose response, cytotoxicity control, plate reader, cherry-pick, antagonist series (AID 743412); assay type: functional, cell-based
[13] = MC4R antagonists, dose response, counter-screen for LGR2 antagonist project, cell-based, plate reader, cherry pick (AID 743444); assay type: functional;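 further: transfected HEK 293 cells stimulated with alpha-MSH peptide; potency of inhibitors of the alpha-MSH evoked signal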
[14] = HepG2 cell cytotoxicity, dose response, cytotoxicity control, plate reader, cherry-pick, antagonist series (AID 743416); assay type: functional, cell-based
[15] = T. cruzi growth inhibition in host cells, dose response, cell-based, plate reader, dry powder, set 2 (AID 652275); assay type: functional
[16] = P. falciparum Dd2 growth inhibitors, dose response, SYBR Green, dry powder samples, set 9 (AID 1159568); assay type: functional, cell-based
Estrogen receptor = molecular target: T5, Estrogen receptor (Homo sapiens, UniProt P03372);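 further: potency for inhibiting coactivator peptide recruitment to the receptor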
T5 sequence (P03372 whole entry): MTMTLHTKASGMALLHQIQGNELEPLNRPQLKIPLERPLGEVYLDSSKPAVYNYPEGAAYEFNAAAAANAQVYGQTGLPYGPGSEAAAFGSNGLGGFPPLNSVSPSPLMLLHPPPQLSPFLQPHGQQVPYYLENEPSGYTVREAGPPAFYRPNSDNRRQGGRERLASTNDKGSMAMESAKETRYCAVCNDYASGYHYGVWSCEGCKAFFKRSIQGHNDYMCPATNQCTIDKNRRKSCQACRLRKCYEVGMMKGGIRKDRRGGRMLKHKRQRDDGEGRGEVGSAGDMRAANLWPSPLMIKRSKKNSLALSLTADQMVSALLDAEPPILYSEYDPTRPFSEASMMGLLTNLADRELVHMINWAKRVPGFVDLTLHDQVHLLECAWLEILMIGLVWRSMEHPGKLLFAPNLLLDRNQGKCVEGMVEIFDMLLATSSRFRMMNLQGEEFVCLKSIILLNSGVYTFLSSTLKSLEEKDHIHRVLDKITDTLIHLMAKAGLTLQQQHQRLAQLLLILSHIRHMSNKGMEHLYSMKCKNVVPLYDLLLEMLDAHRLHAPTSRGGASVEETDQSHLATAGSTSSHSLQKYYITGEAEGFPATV

Paired box protein Pax-8 = Paired box protein Pax-8 (Homo sapiens, UniProt Q06710); assay: inhibitors of PAX8-driven TPO luciferase reporter, dose response, RMG-I cells, cherry-pick (AID 687027); assay type: functional, cell-based;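 further: luciferase reporter driven by Pax8 target thyroperoxidase promoter measured by SteadyGlo luminescence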
[17] = P. falciparum Dd2 growth inhibitors, dose response, SYBR Green, cherry-picked samples (AID 1159567); assay type: functional, cell-based
[18] = inhibitors of PGC1a acetylation in cells, dose response, cell-based, cherry-picked samples (AID 720514); assay type: functional;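 further: potency may reflect raised or lowered acetylation signal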
[19] = non-specific cell cytotoxicity, dose response, cytotoxicity control for PAX8 inhibitor project, plate reader, dry powder samples (AID 743021); assay type: functional, cell-based
[20] = cytotoxicity in OVCAR8 ovarian cancer cells, dose response, PAX8 project, cell-based, plate reader, dry powder samples (AID 743197); assay type: functional; settings: OVCAR-8
[21] = NIH:OVCAR-3 ovarian cancer cell cytotoxicity, dose response, PAX8 inhibitor project, plate reader, dry powder samples (AID 743044); assay type: functional, cell-based
Cytochrome P450 2C19 = Cytochrome P450 2C19 (Homo sapiens, UniProt P33261); assay: qHTS Assay for Inhibitors and Substrates of Cytochrome P450 2C19. [Related pubchem assays: 410 ]; assay type: ADME; settings: read-out: Potency
[22] = P. falciparum ATP4 D1247Y mutant growth inhibitors, dose response, NITD609-resistant line, SYBR Green, dry powder (AID 1159571); assay type: functional, cell-based;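 further: parasites synchronized at ring stage by sorbitol before testing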
[23] = P. falciparum Dd2 growth inhibitors, dose response, SYBR Green, dry powder samples (AID 1159566); assay type: functional, cell-based;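 further: potency for growth inhibition with lower SYBR green DNA signal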
[24] = P. falciparum 3D7-ScDHODH growth inhibitors, dose response, SYBR Green, dry powder samples (AID 1159570); assay type: functional, cell-based;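 further: parasite growth measured after 72 hours of compound exposure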
[25] = HepG2 cell cytotoxicity, dose response, cytotoxicity control, plate reader, dry powder samples (AID 1159569); assay type: functional, cell-based;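 further: inhibitor potency with signal falling toward the positive control level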
[26] = Dose-response inhibition of insulin secretion in a rat insulinoma line at 5 mM glucose (AID 1117331); assay type: functional, cell-based; settings: INS-1E

T2 sequence (Q92731 whole entry): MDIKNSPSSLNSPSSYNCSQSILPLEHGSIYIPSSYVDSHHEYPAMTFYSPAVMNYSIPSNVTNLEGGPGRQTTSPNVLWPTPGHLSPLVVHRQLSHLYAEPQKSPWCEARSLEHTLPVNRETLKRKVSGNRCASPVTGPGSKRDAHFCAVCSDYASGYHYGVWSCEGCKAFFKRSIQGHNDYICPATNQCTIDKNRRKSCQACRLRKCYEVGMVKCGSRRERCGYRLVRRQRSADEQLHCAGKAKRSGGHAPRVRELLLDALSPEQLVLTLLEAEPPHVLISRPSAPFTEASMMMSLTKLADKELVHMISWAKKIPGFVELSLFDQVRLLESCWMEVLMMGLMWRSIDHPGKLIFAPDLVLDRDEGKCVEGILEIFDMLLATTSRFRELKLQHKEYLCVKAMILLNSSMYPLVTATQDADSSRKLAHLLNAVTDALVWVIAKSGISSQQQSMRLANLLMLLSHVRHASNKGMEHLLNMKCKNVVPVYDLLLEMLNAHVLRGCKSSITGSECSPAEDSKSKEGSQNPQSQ
Sequence of Paired box protein Pax-8 (Q06710 whole entry): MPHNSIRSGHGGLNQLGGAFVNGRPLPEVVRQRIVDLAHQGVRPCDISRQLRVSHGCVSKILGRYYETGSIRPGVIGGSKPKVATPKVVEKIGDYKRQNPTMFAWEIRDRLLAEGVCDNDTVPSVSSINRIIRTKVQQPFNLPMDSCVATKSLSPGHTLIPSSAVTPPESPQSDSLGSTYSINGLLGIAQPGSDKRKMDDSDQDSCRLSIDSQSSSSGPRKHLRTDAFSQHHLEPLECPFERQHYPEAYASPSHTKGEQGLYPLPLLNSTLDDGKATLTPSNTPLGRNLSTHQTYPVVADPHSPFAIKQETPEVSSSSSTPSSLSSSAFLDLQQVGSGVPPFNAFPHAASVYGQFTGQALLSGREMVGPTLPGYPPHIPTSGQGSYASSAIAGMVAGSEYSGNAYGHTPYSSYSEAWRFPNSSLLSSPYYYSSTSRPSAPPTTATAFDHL
Sequence of Cytochrome P450 2C19 (P33261 whole entry): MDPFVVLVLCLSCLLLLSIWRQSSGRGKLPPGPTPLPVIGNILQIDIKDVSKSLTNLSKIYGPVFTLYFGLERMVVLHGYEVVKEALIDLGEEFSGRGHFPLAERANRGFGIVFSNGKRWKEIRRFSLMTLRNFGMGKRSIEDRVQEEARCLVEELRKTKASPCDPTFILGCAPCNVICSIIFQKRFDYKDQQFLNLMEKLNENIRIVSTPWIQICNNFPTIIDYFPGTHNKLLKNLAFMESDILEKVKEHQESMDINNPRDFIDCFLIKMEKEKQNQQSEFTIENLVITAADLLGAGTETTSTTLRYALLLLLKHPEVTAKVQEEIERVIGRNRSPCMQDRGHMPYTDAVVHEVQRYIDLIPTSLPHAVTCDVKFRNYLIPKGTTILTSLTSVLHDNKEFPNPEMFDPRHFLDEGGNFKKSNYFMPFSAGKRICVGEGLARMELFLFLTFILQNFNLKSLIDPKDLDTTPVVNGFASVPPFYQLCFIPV
Sequence of Peroxisome proliferator-activated receptor gamma/Nuclear receptor coactivator 2 (P37231 whole entry): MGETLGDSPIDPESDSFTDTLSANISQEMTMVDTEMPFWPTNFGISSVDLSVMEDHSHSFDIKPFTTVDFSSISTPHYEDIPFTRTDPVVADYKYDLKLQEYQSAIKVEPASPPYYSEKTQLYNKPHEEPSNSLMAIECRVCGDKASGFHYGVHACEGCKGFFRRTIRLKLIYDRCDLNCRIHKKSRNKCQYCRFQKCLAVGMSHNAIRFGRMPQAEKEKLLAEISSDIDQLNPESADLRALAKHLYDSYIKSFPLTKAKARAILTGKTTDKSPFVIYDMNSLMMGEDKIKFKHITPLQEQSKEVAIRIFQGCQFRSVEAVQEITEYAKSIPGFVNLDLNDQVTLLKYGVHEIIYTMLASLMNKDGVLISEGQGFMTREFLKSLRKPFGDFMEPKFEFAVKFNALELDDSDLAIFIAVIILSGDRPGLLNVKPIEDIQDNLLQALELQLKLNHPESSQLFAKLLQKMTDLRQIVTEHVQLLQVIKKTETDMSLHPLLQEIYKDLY
Sequence of Peroxisome proliferator-activated receptor gamma/Nuclear receptor coactivator 2 (Q15596 whole entry, further chain): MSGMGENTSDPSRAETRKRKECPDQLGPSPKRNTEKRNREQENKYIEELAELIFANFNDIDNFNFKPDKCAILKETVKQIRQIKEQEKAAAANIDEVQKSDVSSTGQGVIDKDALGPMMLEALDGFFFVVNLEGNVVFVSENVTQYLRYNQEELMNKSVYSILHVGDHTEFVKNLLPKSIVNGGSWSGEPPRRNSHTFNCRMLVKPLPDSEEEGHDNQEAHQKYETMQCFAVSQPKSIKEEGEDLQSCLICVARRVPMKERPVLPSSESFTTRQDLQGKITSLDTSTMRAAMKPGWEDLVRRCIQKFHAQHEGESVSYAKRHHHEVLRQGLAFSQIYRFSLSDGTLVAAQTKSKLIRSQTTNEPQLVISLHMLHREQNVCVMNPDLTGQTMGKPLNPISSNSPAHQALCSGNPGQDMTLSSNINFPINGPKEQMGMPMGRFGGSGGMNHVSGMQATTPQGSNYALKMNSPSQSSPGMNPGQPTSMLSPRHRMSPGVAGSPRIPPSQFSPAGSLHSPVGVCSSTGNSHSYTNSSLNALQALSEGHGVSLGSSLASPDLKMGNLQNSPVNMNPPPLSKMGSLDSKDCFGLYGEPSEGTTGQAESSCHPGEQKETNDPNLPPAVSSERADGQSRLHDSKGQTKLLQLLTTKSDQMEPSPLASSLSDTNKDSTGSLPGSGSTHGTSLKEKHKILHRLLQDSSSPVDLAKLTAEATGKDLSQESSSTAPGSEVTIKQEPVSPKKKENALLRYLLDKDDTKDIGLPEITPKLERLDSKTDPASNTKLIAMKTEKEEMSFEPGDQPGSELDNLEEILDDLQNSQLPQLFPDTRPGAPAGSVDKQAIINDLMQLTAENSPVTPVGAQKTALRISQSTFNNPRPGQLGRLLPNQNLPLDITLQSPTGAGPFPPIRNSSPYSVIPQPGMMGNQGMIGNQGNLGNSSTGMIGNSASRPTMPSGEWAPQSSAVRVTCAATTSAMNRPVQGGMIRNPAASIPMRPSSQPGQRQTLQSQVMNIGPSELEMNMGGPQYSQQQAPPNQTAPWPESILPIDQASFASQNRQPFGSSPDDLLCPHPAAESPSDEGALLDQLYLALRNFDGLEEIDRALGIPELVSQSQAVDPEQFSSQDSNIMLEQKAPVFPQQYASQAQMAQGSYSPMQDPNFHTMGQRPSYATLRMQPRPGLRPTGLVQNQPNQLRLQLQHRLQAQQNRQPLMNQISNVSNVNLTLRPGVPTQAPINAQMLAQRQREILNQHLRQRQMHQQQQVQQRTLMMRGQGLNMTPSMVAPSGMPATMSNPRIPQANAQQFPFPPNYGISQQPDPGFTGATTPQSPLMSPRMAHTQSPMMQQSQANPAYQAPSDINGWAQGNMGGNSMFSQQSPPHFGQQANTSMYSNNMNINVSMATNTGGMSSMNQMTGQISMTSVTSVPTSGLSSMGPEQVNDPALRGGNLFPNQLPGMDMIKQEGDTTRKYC

## CCc1ccccc1NC(=O)c1cc2ncc(Br)cn2n1
[1]
  IC50: > 100 µM (active)
Bcl-2-like protein 10
  IC50: 62.5 µM (inactive)
Estrogen receptor beta [2]
  IC50: 31 µM (not active)
Estrogen receptor beta [3]
  IC50: 14.7 µM (not active)

## O=C(C1=C[C@@H](c2ccc(C(F)(F)F)cc2)C[C@@H](OCCCCO)O1)N1CCN(Cc2ccc3c(c2)OCO3)CC1
[4]
  EC50: > 79.4 µM (not active)
[5]
  EC50: > 79.4 µM (not active)
[6]
  EC50: > 79.4 µM (not active)

## CC(=N)/C(C#N)=C(/O)CSc1nnc(Nc2ccccc2C)s1
Estrogen receptor beta [2]
  IC50: 12.2 µM (active)
Estrogen receptor beta [3]
  IC50: 5.18 µM (not active)

## CCCCCCCCCCCCCCCC[n+]1ccccc1
[7]
  AC50: 2.73 µM (active)
[8]
  AC50: 5.71 µM (active)

## COc1cc2nc(Nc3cccc(F)c3)nc(N)c2cc1OC
[9]
  IC50: 26.2 µM (inactive)
[10]
  IC50: 18.2 µM (inactive)
[11]
  IC50: 35.5 µM (inactive)
[8]
  AC50: 8.77 µM (active)

## C[C@H]1CN([C@@H](C)CO)C(=O)c2cc(C#CCc3ccccc3)cnc2O[C@H]1CN(C)Cc1ccccc1
[12]
  AC50: 23.3 µM (active)
[13]
  AC50: 38.2 µM (active)
[14]
  AC50: > 52 µM (inactive)

## CN(C)C(=O)c1ccc(-c2ccc([C@H]3[C@H](CO)N4CCCCN(C(=O)C5CCCC5)C[C@@H]34)cc2)cc1
[15]
  AC50: 0.0488 µM (active)

## CCC(C)NS(=O)(=O)c1ccc(NS(=O)(=O)c2ccc(F)cc2)cc1 (stereo not given)
[1]
  IC50: > 100 µM (active)

## C[C@@H]1CCCCO[C@@H](CN(C)C(=O)Nc2cccc3ccccc23)[C@H](C)CN([C@H](C)CO)C(=O)c2cc(NC(=O)CCC(F)(F)F)ccc2O1
[16]
  AC50: 1.08 µM (active)

## Cc1ccc(C(=O)NCC(=O)OCC(=O)c2c(N)n(C)c(=O)n(C)c2=O)s1
Estrogen receptor
  IC50: > 50 µM (not active)
Estrogen receptor beta [2]
  IC50: 6.84 µM (active)
Estrogen receptor beta [3]
  IC50: 6.1 µM (not active)

## O=C(C[C@H]1C[C@@H]2c3cc(NS(=O)(=O)c4ccc(F)cc4)ccc3O[C@@H]2[C@@H](CO)O1)N1CCc2ccccc2C1
Paired box protein Pax-8
  AC50: 3.86 µM (active)
[17]
  AC50: 9.73 µM (active)
[18]
  AC50: 17.5 µM (active)
[19]
  AC50: 57.8 µM (active)
[20]
  AC50: 23.9 µM (active)
[16]
  AC50: 6.85 µM (active)
[21]
  AC50: 26.1 µM (active)

## COc1ccc(S(=O)(=O)Nc2ccc3c(c2)C(=O)N([C@@H](C)CO)C[C@H](C)[C@@H](CN(C)C(=O)Nc2ccc(F)cc2)OCCCC[C@H](C)O3)cc1
Paired box protein Pax-8
  AC50: 9.96 µM (active)
[19]
  AC50: 59.1 µM (active)

## COc1ccc(NC(=O)N(C)C[C@H]2Oc3c(NC(=O)CCCCCC(=O)Nc4ccccc4N)cccc3C(=O)N([C@@H](C)CO)C[C@H]2C)cc1
[16]
  AC50: 0.983 µM (active)

## CN(C)C(=O)c1cccc(-c2ccc([C@H]3[C@H](CO)N4CCCCN(CC5CCOCC5)C[C@@H]34)cc2)c1
[15]
  AC50: 4.63 µM (active)

## CCOC(=O)/C(C#N)=C/c1c(OCC)n(CC)c2ccccc12
[1]
  IC50: > 100 µM (active)

## CCCCC#CC1C=CC(OC(C)=O)C(COC(C)=O)O1 (stereo not given)
Cytochrome P450 2C19
  AC50: 7.94 µM (inconclusive)

## O=C(NC1CCCC1)C(c1ccncc1)N(Cc1ccccc1F)C(=O)c1csnn1 (stereo not given)
[18]
  AC50: 34.7 µM (active)

## CN(C)CC(=O)N1CCCCN2[C@@H](CO)[C@H](c3ccc(/C=C/c4ccccc4)cc3)[C@@H]2C1
[18]
  AC50: 23.8 µM (active)

## COc1ccc(C#Cc2cccc(-c3nc(C(=O)NCc4ccc5c(c4)OCO5)cc4c3[C@@H](CCO)N([S+]([O-])C(C)(C)C)C4)c2)cc1OC (stereo not given in full)
[22]
  AC50: 1.52 µM (active)
[23]
  AC50: 0.838 µM (active)
[17]
  AC50: 0.747 µM (active)
[24]
  AC50: 2.05 µM (active)
[25]
  AC50: > 100 µM (inactive)
[15]
  AC50: 0.58 µM (active)

## CC(C)NC(=O)NC(=O)CSc1ccccc1F
[4]
  EC50: > 79.4 µM (not active)
[5]
  EC50: > 79.4 µM (not active)
[6]
  EC50: > 79.4 µM (not active)

## COc1ccc2c(c1OC)C(=O)O[C@H]2[C@@H]1c2cc3c(cc2CCN1C)OCO3
[26]
  IC50: > 33.3 µM (inactive)

## CC(=O)c1ccc(OC2C=CC(C#Cc3ccc(Br)cc3)OC2CO)cc1 (stereo not given)
Cytochrome P450 2C19
  AC50: 3.98 µM (inconclusive)
